Experimental data published in patent US10881679B2, “Application of a phillyrin/phillygeninin composition in preparing a medicine or health care product for alleviating or/and treating viral diseases, and medicine or health care product for treating viral diseases” (priority 2014, dated 2021).
Marks after values point to notes of the source that are not given here.

Key:
Vero cells = assay: Cytotoxicity test (MTT) on Vero cells; format: cell-based, African green monkey; settings: 72 h
Method: Cytotoxicity test: the drugs were diluted according to the concentrations shown in table 1-1 for determination of cytotoxicity. […] In addition, 6 wells were set up as normal control group (without drugs) while another 6 pores as blank control group (medium only). Cells were grown in a 37° C. incubator under 5% CO2. […] After 72 h, 20 μL MTT solution (5 mg·mL^−1) was added into each well to continue incubation for 4 h. The culture medium in each well was sucked and discarded, 100 μL DMSO was added to each well. Then the culture was shaken for 5 min, measured OD value at 492 nm to calculate the cell survival ratio. The cell survival ratio was analyzed using a Probit regression model in SPSS 18.0 statistical software, and the maximal nontoxic concentration (TC0) and median toxic concentration (TC50) of drugs against Vero cells were calculated.

[1] = tested on: Coxsackievirus A16 (CoxA16); assay: Impact on virus-induced cytopathic effect in Vero cells (MTT): CoxA16; format: cell-based; settings: CoxA16 100TCID50, Vero, 72 h; drug g/L as Table 1-2
enterovirus EV71 = assay: Impact on virus-induced cytopathic effect in Vero cells (MTT): EV71; format: cell-based; settings: EV71 100TCID50, Vero, 72 h; drug g/L as Table 1-2
[2] = tested on: sweat secretion of rat paws; assay: Sweat secretion of rat paws (coloring method); format: in vivo, Wistar rats; settings: dose not given
Description: The test is based on a mechanism that distribution of sweat glands is present in footpads of rat paws, the amount of sweat secretion and variation thereof can be observed by using a mechanism that a purple color can be produced by contacting iodine and starch when encountered with sweat.
500 Wistar rats with equal male and female number were used, weighing of 120˜150 g. These rats were randomly divided into 50 groups by weight and gender, i.e., namely 5 groups for the control groups (0.5% methyl cellulose), 5 groups for phillyrin groups, 5 groups for phillygeninin groups, 5 groups for the low, medium and high dose groups (2.5, 5, 10 mg/kg, respectively) of phillyrin/phillygeninin compositions A and B respactively, and 5 groups for the positive drug pilocarpine groups (35 mg/kg). Each group has 10 rats, 10 groups of rates are used for each test, which has 5 time periods (1, 5, 10, 15 and 20 min). The rats were placed into a self-made rat fixation bag, and both hind limbs of the rats were exposed. Dirt on the right paws was gently cleaned away using cotton swabs containing anhydrous alcohol. Pilocarpine solution was administered by subcutaneous injection, the remaining groups were subjected to intragastric administration. At 1 h (30 min for the pilocarpine group) after administration, pre-existing sweat and sweat generated due to struggle on the right paw of each rat in each group was gently wiped away with dry cotton swabs, then the paws were coated with solution A (dissolving 2 g iodine in 100 ml anhydrous alcohol) of Hetian-gaoyuanshi's reagent. After complete dryness, the paws were thinly coated with solution B (uniform mixture of 50 g soluble starch and 100 ml castor oil) of Hetian-gaoyuanshi's reagent. The color and number of dark purple coloring spots (i.e. sweat spots) were carefully observed at 1, 5, 10, 15 and 20 min after the coating of the solution B respectively with magnifying glass. After the test was completed, statistical treatment was performed according to the rank sum test with two-sample comparison, thereby comparing the differences among the various groups.

[3] = tested on: rat fever induced by beer yeast; assay: Rat fever induced by beer yeast (Saccharomyces cerevisiae); format: in vivo, Wistar rats; settings: 10 mg/kg i.g.
Method: Male Wistar rats with a weight of 180˜200 g were used. Normal anal temperature of each rat was measured twice (at a certain interval) with a WSC-411P portable digital thermometer, and a mean of the two measurement values was taken as a normal body temperature of the rat. Then, 300 rats with body temperature at 36.5˜38° C. were selected and randomly divided into 30 groups by weight: model groups (0.5% methyl cellulose), phillyrin/phillygeninin compositions A and B that are divided into low, medium and high dose groups (2.5, 5, 10 mg/kg) respectively, phillyrin groups (13 mg/kg), phillygeninin groups (13 mg/kg), and positive drug paracetamol groups (100 mg/kg). Each group has 10 rates, and the test is repeated 3 times for each group. 10 mL/kg of 10% fresh Saccharomyces cerevisiae suspension was subcutaneously injected to the back of the rats of each group to induce fever. After administration of 10% fresh Saccharomyces cerevisiae suspension for 6.0 h, the phillyrin/phillygeninin composition and the paracetamol positive drug were administered by intragastric administration, and the same volume of 0.5% methyl cellulose is administrated to the model group by intragastric administration. Rectal temperatures were respectively measured at 1, 2, 3 and 4 h after the administration. Changes in the body temperature were observed and difference between the groups was compared by inter-group t test processing through antipyretic percentage. The above test was repeated totally 3 times.

[4] = 10 min after coating solution B
[5] = 15 min after coating solution B
[6] = 20 min after coating solution B

Row | Structure (SMILES) | half toxic concentration (TC50) (Vero cells) [µg/mL] | maximal non-toxic concentration (TC0) (Vero cells) [g/L] | antiviral effective rate (ER %) [1] | antiviral effective rate (ER %) (enterovirus EV71) | Animal number of sweat spots of level + ([2]; 1 min after coating solution B) [rats] | Animal number of sweat spots of level ++ ([2]; 1 min after coating solution B) [rats] | Animal number of sweat spots of level +++ ([2]; 1 min after coating solution B) [rats] | Animal number of sweat spots of level ++++ ([2]; 1 min after coating solution B) [rats] | Animal number of sweat spots of level − ([2]; 1 min after coating solution B) [rats] | Animal number of sweat spots of level + ([2]; 5 min after coating solution B) [rats] | Animal number of sweat spots of level ++ ([2]; 5 min after coating solution B) [rats] | Animal number of sweat spots of level +++ ([2]; 5 min after coating solution B) [rats] | Animal number of sweat spots of level ++++ ([2]; 5 min after coating solution B) [rats] | Animal number of sweat spots of level − ([2]; 5 min after coating solution B) [rats] | Animal number of sweat spots of level + [2, 4] [rats] | Animal number of sweat spots of level ++ [2, 4] [rats] | Animal number of sweat spots of level +++ [2, 4] [rats] | Animal number of sweat spots of level ++++ [2, 4] [rats] | Animal number of sweat spots of level − [2, 4] [rats] | Animal number of sweat spots of level + [2, 5] [rats] | also measured
1 | COc1cc([C@H]2OC[C@H]3[C@@H]2CO[C@H]3c2ccc(OC)c(OC)c2)ccc1O [Phillygeninin, phillygeninin] | 297 | 0.011 | 50.04% | 75.86** % | 1 | 3 | 3 | 3 | 0 | 1 | 3 | 2 | 4 | 0 | 1 | 3 | 1 | 5 | 0 | 1 | Animal number of sweat spots of level ++ [2, 5]: 1 rats; Animal number of sweat spots of level +++ [2, 5]: 3 rats; Animal number of sweat spots of level ++++ [2, 5]: 5 rats; Animal number of sweat spots of level − [2, 5]: 0 rats; Animal number of sweat spots of level + [2, 6]: 0 rats; Animal number of sweat spots of level ++ [2, 6]: 1 rats; Animal number of sweat spots of level +++ [2, 6]: 4 rats; Animal number of sweat spots of level ++++ [2, 6]: 5 rats; Animal number of sweat spots of level − [2, 6]: 0 rats; Body temperature ([3]; 1 h after administration): 39.31 ± 0.48 °C; antipyretic percentage (%) ([3]; 1 h after administration): −0.33 ± 0.41%; Body temperature ([3]; 2 h after administration): 39.04 ± 0.45 °C; antipyretic percentage (%) ([3]; 2 h after administration): −0.69 ± 0.93 %; Body temperature ([3]; 3 h after administration): 38.91 ± 0.40 °C; antipyretic percentage (%) ([3]; 3 h after administration): −1.03 ± 1.18 %; Body temperature ([3]; 4 h after administration): 38.70 ± 0.31 °C; antipyretic percentage (%) ([3]; 4 h after administration): −1.55 ± 1.23 %
2 | COc1ccc([C@H]2OCC3C2CO[C@H]3c2ccc(O[C@@H]3OC(CO)[C@@H](O)[C@H](O)C3O)c(OC)c2)cc1OC (some centres unmarked) [phillyrin] | 550 | 0.0066 | 75.08** % | 84.85** % | 2 | 2 | 2 | 4 | 0 | 1 | 2 | 2 | 5 | 0 | 1 | 1 | 3 | 5 | 0 | 1 | Animal number of sweat spots of level ++ [2, 5]: 2 rats; Animal number of sweat spots of level +++ [2, 5]: 4 rats; Animal number of sweat spots of level ++++ [2, 5]: 5 rats; Animal number of sweat spots of level − [2, 5]: 0 rats; Animal number of sweat spots of level + [2, 6]: 0 rats; Animal number of sweat spots of level ++ [2, 6]: 4 rats; Animal number of sweat spots of level +++ [2, 6]: 0 rats; Animal number of sweat spots of level ++++ [2, 6]: 6 rats; Animal number of sweat spots of level − [2, 6]: 0 rats; Body temperature ([3]; 1 h after administration): 39.13 ± 0.52 °C; antipyretic percentage (%) ([3]; 1 h after administration): −0.60 ± 0.39%; Body temperature ([3]; 2 h after administration): 38.77 ± 0.42 °C; antipyretic percentage (%) ([3]; 2 h after administration): −0.92 ± 0.93 %; Body temperature ([3]; 3 h after administration): 38.63 ± 0.40 °C; antipyretic percentage (%) ([3]; 3 h after administration): −1.29 ± 1.18 %; Body temperature ([3]; 4 h after administration): 38.46 ± 0.31 °C; antipyretic percentage (%) ([3]; 4 h after administration): −1.70 ± 1.23 %
